Laboratory results published in ChEMBL document CHEMBL4842376, “Design, synthesis and biological evaluation of novel hybrids targeting mTOR and HDACs for potential treatment of hepatocellular carcinoma” (Eur J Med Chem, 2021).
Active and inactive are the calls of the source. No cut-off for these calls is given here.

Columns and labels:
[1] = Metabolic stability in rat liver microsomes assessed as parent compound remaining at 10 ug/ml measured after 1 hr in the presence of NADPH by HPLC analysis; assay type: ADME, Microsome; conditions: at 10 µg/mL
[2] = biological target: Serine/threonine-protein kinase mTOR (Homo sapiens, UniProt P42345); assay: Inhibition of mTOR (unknown origin) at 1 uM using U-Light-4E-BP1 peptide as a substrate in the presence of ATP incubated for 30 mins by Lance ultra assay relative to control
HepG2 [3] = assay: Antiproliferative activity against human HepG2 cells assessed as inhibition of cell growth measured after 72 hrs by MTT assay; assay type: functional, cell-based; conditions: HepG2, 72 h
[4] = biological target: Histone deacetylase (Homo sapiens) (UniProt Q13547+O15379+Q9UBN7+Q92769+Q9UQL6+Q8WUI4+Q9BY41+Q96DB2+P56524+Q9UKV0+Q969S8); assay: Inhibition of HDAC in human HepG2 cells assessed as upregulation of histone H3 acetylation at 6 uM measured after 24 hrs by western blot analysis; assay type: cell-based
HepG2 [5] = assay: Antimigratory activity in human HepG2 cells assessed as reduction in wound closure measured after 24 to 48 hrs by scratch wound healing assay; assay type: functional, cell-based; conditions: dose 1.5-6 µM, time 24-48 hrs
HepG2 [6] = assay: Induction of apoptosis in human HepG2 cells assessed as necrotic cells at 5 uM measured after 24 hrs by Annexin V-FITC/PI staining based flow cytometry analysis (Rvb= 0.082%); assay type: functional
HepG2 [7] = assay: Induction of cell cycle arrest in human HepG2 cells assessed as accumulation of cells in S phase at 1.5 uM measured after 24 hrs by propidium iodide staining based flow cytometry analysis (Rvb= 17 to 26.4%); assay type: functional
Histone deacetylase 2 = Histone deacetylase 2 (Homo sapiens, UniProt Q92769)
Chain of Histone deacetylase 2 (Q92769 whole entry): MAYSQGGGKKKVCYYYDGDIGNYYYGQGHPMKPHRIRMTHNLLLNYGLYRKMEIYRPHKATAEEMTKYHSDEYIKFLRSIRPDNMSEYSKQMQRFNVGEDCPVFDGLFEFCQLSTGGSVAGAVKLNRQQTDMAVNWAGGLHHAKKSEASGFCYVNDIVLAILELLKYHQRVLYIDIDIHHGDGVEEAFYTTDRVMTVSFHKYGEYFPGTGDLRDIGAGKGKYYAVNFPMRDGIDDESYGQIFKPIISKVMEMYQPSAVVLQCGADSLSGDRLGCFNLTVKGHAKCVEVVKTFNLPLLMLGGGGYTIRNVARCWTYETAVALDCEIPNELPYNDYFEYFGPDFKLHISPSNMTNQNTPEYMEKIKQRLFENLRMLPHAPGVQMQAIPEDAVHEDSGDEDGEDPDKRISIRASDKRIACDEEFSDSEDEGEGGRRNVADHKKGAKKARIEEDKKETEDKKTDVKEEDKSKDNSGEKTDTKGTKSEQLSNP

HepG2 [8] = assay: Induction of cell cycle arrest in human HepG2 cells assessed as accumulation of cells in G0/G1 phase at 1.5 uM measured after 24 hrs by propidium iodide staining based flow cytometry analysis (reference value: 52.7 to 63.2%); assay type: functional
SK-HEP1 = assay: cells; assay type: functional, cell-based; conditions: Homo sapiens, SK-HEP1, 72 h
Description: Antiproliferative activity against human SK-HEP1 cells assessed as inhibition of cell growth measured after 72 hrs by MTT assay

[9] = biological target: T1, Protein deacetylase HDAC6 (Homo sapiens, UniProt Q9UBN7); assay: Inhibition of HDAC6 (unknown origin) using Ac-peptide as a substrate pretreated for 15 mins followed by substrate addition
T1 sequence (Q9UBN7 whole entry): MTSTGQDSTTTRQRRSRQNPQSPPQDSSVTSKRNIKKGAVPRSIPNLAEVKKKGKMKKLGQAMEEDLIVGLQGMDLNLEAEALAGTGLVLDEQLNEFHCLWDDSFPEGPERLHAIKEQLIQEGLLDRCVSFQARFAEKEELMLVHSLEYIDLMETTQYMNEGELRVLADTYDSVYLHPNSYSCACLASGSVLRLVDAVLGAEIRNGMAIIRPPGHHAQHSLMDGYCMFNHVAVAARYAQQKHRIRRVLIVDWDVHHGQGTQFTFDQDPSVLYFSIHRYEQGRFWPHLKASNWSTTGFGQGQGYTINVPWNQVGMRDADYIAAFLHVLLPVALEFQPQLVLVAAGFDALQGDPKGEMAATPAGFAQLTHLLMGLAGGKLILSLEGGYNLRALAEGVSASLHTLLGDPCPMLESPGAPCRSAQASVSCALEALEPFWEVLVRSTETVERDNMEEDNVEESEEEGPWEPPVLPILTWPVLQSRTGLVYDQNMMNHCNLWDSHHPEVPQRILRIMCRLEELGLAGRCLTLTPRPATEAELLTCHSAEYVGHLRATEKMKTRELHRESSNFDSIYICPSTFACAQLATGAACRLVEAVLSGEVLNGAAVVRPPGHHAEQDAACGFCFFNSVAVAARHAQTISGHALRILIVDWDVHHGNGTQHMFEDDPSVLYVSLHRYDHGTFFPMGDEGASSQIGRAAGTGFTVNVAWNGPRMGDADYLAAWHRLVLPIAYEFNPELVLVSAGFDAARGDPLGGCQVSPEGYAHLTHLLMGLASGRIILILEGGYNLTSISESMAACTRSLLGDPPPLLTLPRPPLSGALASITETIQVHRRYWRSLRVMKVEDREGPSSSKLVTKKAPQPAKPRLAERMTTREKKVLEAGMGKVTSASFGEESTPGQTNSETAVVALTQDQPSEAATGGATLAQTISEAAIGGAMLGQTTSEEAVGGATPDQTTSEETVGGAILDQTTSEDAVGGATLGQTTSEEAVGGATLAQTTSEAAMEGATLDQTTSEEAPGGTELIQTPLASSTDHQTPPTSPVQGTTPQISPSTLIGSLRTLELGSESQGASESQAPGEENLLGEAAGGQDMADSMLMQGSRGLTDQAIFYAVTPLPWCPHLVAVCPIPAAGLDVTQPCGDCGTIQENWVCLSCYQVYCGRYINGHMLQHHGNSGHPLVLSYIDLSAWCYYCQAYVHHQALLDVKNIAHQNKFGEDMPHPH

HepG2 [10] = assay: Induction of apoptosis in human HepG2 cells assessed as late apoptotic cells at 5 uM measured after 24 hrs by Annexin V-FITC/PI staining based flow cytometry analysis (Rvb= […]); assay type: functional
HCT-116 = assay: cells; assay type: functional, cell-based; conditions: Homo sapiens, HCT-116, 72 h
Description: Antiproliferative activity against human HCT-116 cells assessed as inhibition of cell growth measured after 72 hrs by MTT assay

HepG2 [11] = assay: Induction of cell cycle arrest in human HepG2 cells assessed as accumulation of cells in S phase at 6 uM measured after 24 hrs by propidium iodide staining based flow cytometry analysis (reference value: 17 to 26.4%); assay type: functional
Histone deacetylase 8 = biological target: T2, Histone deacetylase 8 (Homo sapiens, UniProt Q9BY41); assay: Inhibition of HDAC8 (unknown origin) using Ac-peptide as a substrate pretreated for 15 mins followed by substrate addition
T2 sequence (Q9BY41 whole entry): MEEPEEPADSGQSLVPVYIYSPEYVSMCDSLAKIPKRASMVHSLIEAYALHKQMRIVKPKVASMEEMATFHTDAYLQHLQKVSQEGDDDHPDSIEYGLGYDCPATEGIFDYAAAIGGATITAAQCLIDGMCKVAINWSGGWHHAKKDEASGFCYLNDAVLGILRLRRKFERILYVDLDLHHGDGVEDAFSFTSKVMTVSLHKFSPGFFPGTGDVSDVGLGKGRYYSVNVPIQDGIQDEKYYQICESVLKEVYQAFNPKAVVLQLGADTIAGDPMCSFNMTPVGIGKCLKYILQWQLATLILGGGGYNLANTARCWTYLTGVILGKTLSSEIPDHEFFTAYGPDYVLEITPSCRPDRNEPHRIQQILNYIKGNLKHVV

HepG2 [12] = assay: Induction of cell cycle arrest in human HepG2 cells assessed as accumulation of cells in G2/M phase at 6 uM measured after 24 hrs by propidium iodide staining based flow cytometry analysis (Rvb= 17.8 to 18.5%); assay type: functional
Hep 3B2 = assay: cells; assay type: functional, cell-based; conditions: Homo sapiens, Hep3B, 72 h
Description: Antiproliferative activity against human Hep3B cells assessed as inhibition of cell growth measured after 72 hrs by MTT assay

With `Nc1nc2cc(-c3nn(CCCCCCC(=O)NO)c4ncnc(N)c34)ccc2o1` the Stabilty ([1]; microsomes, 1 h) was “Stable”, the inhibition [2] was 99% and the IC50 (HepG2 [3]) was 1610 nM. For the same compound, the inhibition [4] was “Active”, the Activity (HepG2 [5]) was “Dose-Dependent Effect” and the Activity (HepG2 [6]) was 0.59%. For the same compound, the Activity (HepG2 [7]) was 16.4%, the IC50 (Histone deacetylase 2) was 3.2 nM and the Activity (HepG2 [8]) was 66.2%. The IC50 (SK-HEP1) was 2690 nM, the IC50 [9] was 10.3 nM and the Activity (HepG2 [10]) was 14.5%. The IC50 (HCT-116) was 5390 nM, the Activity (HepG2 [11]) was 7.78% and the IC50 (Histone deacetylase 8) was 231 nM. The Activity (HepG2 [12]) was 15.7% and the IC50 (Hep 3B2) was 14000 nM.

Compound `Nc1ncnc2c1c(-c1cnc3[nH]ccc3c1)nn2CCCCCCCCC(=O)NO` has a remaining at 1 h, 10 ug/ml ([1]; liver microsomes, read-out: Stabilty) of 55.2%, an inhibition [2] of 97.7% and an IC50 (HepG2 [3]) of 3050 nM. For the same compound, the inhibition [4] was “Active”, the Activity (HepG2 [5]) was “Dose-Dependent Effect” and the Activity (HepG2 [6]) was 0.15%. It also gave an Activity (HepG2 [7]) of 20.2%, an IC50 (Histone deacetylase 2) of 24 nM and an Activity (HepG2 [8]) of 60.1%. It also gave an IC50 (SK-HEP1) of 11200 nM, an IC50 [9] of 9.54 nM and an Activity (HepG2 [10]) of 10.4%. It also gave an IC50 (HCT-116) of 5460 nM, an Activity (HepG2 [11]) of 11.5% and an IC50 (Histone deacetylase 8) of 733 nM. For the same compound, the Activity (HepG2 [12]) was 23.5% and the IC50 (Hep 3B2) was 8390 nM.
